We go through 1 compound from patent publication EP4613271A1, “USE OF 1-METHYLNICOTINAMIDE IN PREPARATION OF ANTI-VASCULAR CALCIFICATION DRUG” (The Eight Affiliated Hospital, Sun Yat-Sen University, priority 2023, dated 2024).

Assay [1] has as its system Human vascular smooth muscle cells. Nature of the assay: cisplatin (DDP) and phosphorus-induced calcification of vascular smooth muscle cells under aging conditions (alizarin red staining, calcium content). The format is cell-based. The conditions noted are these: 100 µM 1-methylnicotinamide, 2.6 mM phosphorus, 7 days. As for the experimental part:
3. To further verify the effect of 1-methylnicotinamide in inhibiting vascular calcification under aging conditions, cisplatin (DDP) and phosphorus were added to induce calcification in vascular smooth muscle cells. After 7 days of intervention with 1-methylnicotinamide or nicotinamide N-methyltransferase inhibitor (NNMTi), alizarin red staining was performed to further evaluate the inhibitory effect of 1-methylnicotinamide on vascular calcification under aging conditions. The specific procedure was as follows.
Human vascular smooth muscle cells of passages 8-12 were plated in a 12-well plate at 1×10^5/well, and 1 mL of DMEM complete medium was added to each well. On the first day after plating, 2.6 mM phosphorus was added to induce calcification, and 100 µM 1-methylnicotinamide or 25 µM nicotinamide N-methyltransferase inhibitor (NNMTi) was added for intervention. […]
4. Cisplatin and phosphorus were added to induce calcification in vascular smooth muscle cells, and 1-methylnicotinamide or nicotinamide N-methyltransferase inhibitor (NNMTi) was added for intervention for 7 days, and then the calcium content was determined. […]
(§1) Human vascular smooth muscle cells of passages 8-12 were plated in a 6-well plate at 2×10^5/well, and 2 mL of DMEM complete medium was added to each well. […] On the seventh day, the calcium content was determined.

Assay [2] shares this test system. As to the kind of experiment: phosphorus-induced calcification of vascular smooth muscle cells (alizarin red staining, calcium content). Format: cell-based. The conditions noted are these: 100 µM 1-methylnicotinamide, 2.6 mM phosphorus, 7 days. As to the method:
• 1. In this example, phosphorus was added to induce vascular calcification in vascular smooth muscle cells, and 1-methylnicotinamide or nicotinamide N-methyltransferase inhibitor (NNMTi) was added for intervention for 7 days, and then alizarin red staining was performed to evaluate the inhibitory effect of 1-methylnicotinamide on vascular calcification. The specific procedure was as follows. Human vascular smooth muscle cells of passages 8-12 were plated in a 12-well plate at 1×10^5/well, and 1 mL of DMEM complete medium was added to each well. On the first day after plating, 2.6 mM phosphorus was added to induce calcification, and 100 µM 1-methylnicotinamide or 25 µM nicotinamide N-methyltransferase inhibitor (NNMTi) was added for intervention. On the fourth day, the DMEM complete medium was replaced and 2.6 mM phosphorus was added to induce calcification again, and 100 µM 1-methylnicotinamide or 25 µM nicotinamide N-methyltransferase inhibitor (NNMTi) was added for intervention. […] After 7 days of intervention with 1-methylnicotinamide or nicotinamide N-methyltransferase inhibitor (NNMTi), a calcium content was determined. […]
as §1

Assay [3] shares this test system. Nature of the assay: bleomycin (BLM) and phosphorus-induced calcification of vascular smooth muscle cells under aging conditions (alizarin red staining, calcium content). The format is cell-based. The following applies: 100 µM 1-methylnicotinamide, 2.6 mM phosphorus, 1 µg/mL bleomycin, 7 days. As to the method:
• 1. In this example, bleomycin (BLM) and phosphorus were added to induce vascular calcification in vascular smooth muscle cells, and 1-methylnicotinamide or nicotinamide N-methyltransferase inhibitor (NNMTi) was added for intervention for 7 days, and then alizarin red staining was performed to evaluate the inhibitory effect of 1-methylnicotinamide on vascular calcification. The specific procedure was as follows. Human vascular smooth muscle cells of passages 8-12 were plated in a 12-well plate at 1×10^5/well, and 1 mL of DMEM complete medium was added to each well. On the first day after plating, 2.6 mM phosphorus was added to induce calcification, and 100 µM 1-methylnicotinamide or 25 µM nicotinamide N-methyltransferase inhibitor (NNMTi) was added for intervention. […] After 7 days of intervention with 1-methylnicotinamide or nicotinamide N-methyltransferase inhibitor (NNMTi), a calcium content was determined. […]
as §1

Assay [4] has as its system Naturally aged C57BL/6 mice. Nature of the assay: high-calcium and high-adenine diet-induced vascular calcification in aged mice (aorta alizarin red staining, IHC of aortic rings). Format: in vivo. The following applies: 2.5 months, 25 months old mice. As to the method: • 1. In this example, a high-calcium and high-adenine diet was used to induce vascular calcification in aged mice. After intervention by using 1-methylnicotinamide for 2.5 months, alizarin red staining was performed on the aorta of the mice to evaluate the inhibitory effect of 1-methylnicotinamide on vascular calcification in aged mice. The specific procedure was as follows.
Naturally aged C57BL/6 mice (25 months old) were randomly divided into a control group (n=10), a high-calcium and high-adenine group (n=10), and a high-calcium and high-adenine + 1-methylnicotinamide group (100 mg/kg/day) (n=10), and were fed with normal feed, high-calcium and high-adenine feed, and high-calcium and high-adenine feed and 1-methylnicotinamide respectively, and water is normally provided for each group. The mice were killed after 2.5 months, and the aortas of the mice were obtained for alizarin red staining.
2. To further verify the effect of 1-methylnicotinamide in inhibiting vascular calcification in aged mice, a high-calcium and high-adenine diet was used to induce vascular calcification in aged mice. After 2.5 months of intervention with 1-methylnicotinamide, the IHC staining was performed on α-smooth muscle actin (α-SMA) and bone morphogenetic protein 2 (BMP2) in mouse aortic rings to further evalaute the inhibitory effect of 1-methylnicotinamide on vascular calcification in aged mice. […]

`C[n+]1cccc(C(N)=O)c1` [1-methylnicotinamide]: the calcium content result was “had the effect of inhibiting vascular calcification under aging conditions” in assay [1] (1 µM cisplatin, Panel D of Fig. 3); “had the effect of inhibiting vascular calcification” in assay [2] (Fig. 2); “had the effect of inhibiting vascular calcification under aging conditions” in assay [3] (Panel B of Fig. 3). The alizarin red staining result in assay [1] (1 µg/mL cisplatin, Panel C of Fig. 3) is given as “could significantly inhibit the calcification of cisplatin-induced aged vascular smooth muscle cells”; in assay [2] (Fig. 1) it was “could significantly inhibit the occurrence of vascular calcification”; in assay [3] (Panel A of Fig. 3) it was “could significantly inhibit the calcification of bleomycin-induced aged vascular smooth muscle cells”. Further, in assay [4] (100 mg/kg/day 1-methylnicotinamide with high-calcium and high-adenine feed, Panel A of Fig. 4), the “alizarin red staining of the aorta” value is “could significantly inhibit vascular calcification in aged mice”. Also, the “IHC staining of α-SMA and BMP2 in aortic rings” value in assay [4] (1-methylnicotinamide with high-calcium and high-adenine feed, Panel B of Fig. 4) is reported as “could significantly inhibit vascular calcification in aged mice”.
